Results as given in US10864211B2, “Hydroxy isoxazole compounds useful as GPR120 agonists” (Merck Sharp & Dohme Corp., priority 2016, dated 2020).
Where a name gives a salt, the structure may show the parent alone.

Molecular target: T1, human GPR120 (Homo sapiens, UniProt Q5NUL3)
T1 construct: expressed in transfected cells; host or cells: CHO-K1
T1 sequence (Q5NUL3 1-361): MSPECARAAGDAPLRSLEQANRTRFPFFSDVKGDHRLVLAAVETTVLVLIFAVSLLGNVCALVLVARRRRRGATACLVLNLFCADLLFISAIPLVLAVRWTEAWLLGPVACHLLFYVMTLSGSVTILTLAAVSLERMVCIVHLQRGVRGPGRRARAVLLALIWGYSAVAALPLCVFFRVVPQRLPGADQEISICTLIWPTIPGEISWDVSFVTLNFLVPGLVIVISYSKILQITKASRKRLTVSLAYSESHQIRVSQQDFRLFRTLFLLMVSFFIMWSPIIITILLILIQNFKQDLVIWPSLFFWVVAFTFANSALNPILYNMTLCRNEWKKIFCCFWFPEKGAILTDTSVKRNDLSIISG
Test: Human GPR120 IP1 assay (inositol phosphate turnover)
Type: cell-based
Details: IP1 accumulation in CHO-K1 cells stably expressing the short form of human GPR120
Procedure, shortened: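 Human receptor (short form) was stably expressed in CHO-K1 cells and rat receptor in HEK293 cells. Cells were exposed to compound for 60 min at 37° C in kit stimulation buffer. IP1 was quantified by HTRF 665/620 nm ratio against a standard curve, normalized to a reference compound, with EC50 from 4-parameter fits.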

Compound	EC50 [nM]
Oc1cc(-c2ccc(OC3CCC(c4cccc(OC(F)(F)F)c4)C3)nc2)on1 (single isomer, unassigned) [Example 119, 5-(6-((3-(3-(trifluoromethoxy)phenyl)cyclopentyl)oxy)pyridin-3-yl)isoxazol-3-ol]	12
Oc1cc(-c2cnc(O[C@H]3C[C@@H](COc4cccc(F)c4)C3)cn2)on1 [Example 84, sodium 5-[5-({cis-3-[(3-fluorophenoxy)methyl]cyclobutyl}oxy)pyrazin-2-yl]isoxazol-3-olate]	12
Oc1cc(-c2cnc(O[C@H]3C[C@@H](COc4ccccc4)C3)cn2)on1 [Example 83, sodium 5-(5-{[cis-3-(phenoxymethyl)cyclobutyl]oxy}pyrazin-2-yl)isoxazol-3-olate]	17
Oc1cc(-c2ccc(OC3CC(c4ccc(C5CC5)cc4)C3)nc2)on1 (stereo not drawn) [Example 15, 5-(6-{[3-(4-cyclo-propyl-phenyl)cyclobutyl]oxy}pyridin-3-yl)isoxazol-3-ol]	41
Oc1cc(-c2cnc(O[C@H]3C[C@@H](COc4ccc(F)cc4)C3)cn2)on1 [Example 65, sodium 5-[5-({cis-3-[(4-fluorophenoxy)methyl]-cyclobutyl}oxy)pyrazin-2-yl]isoxazol-3-olate]	5.8
CC1[C@@H](Oc2cnc(-c3cc(O)no3)cn2)C[C@H]1c1ccccc1 (stereo partly drawn) [Example 92, 5-(5-{[(1S,3R)-2-methyl-3-phenylcyclobutyl]oxy}pyrazin-2-yl)isoxazol-3-ol]	17
Oc1cc(-c2ccc(O[C@H]3C[C@H](c4ncc(C(F)(F)F)cc4F)C3)nc2)on1 [Example 8, sodium 5-[6-({trans-3-[3-fluoro-5-(trifluoromethyl)pyridin-2-yl]-cyclobutyl}oxy)pyridin-3-yl]isoxazol-3-olate]	303
Oc1cc(-c2cnc(O[C@H]3C[C@@H](c4cc(F)c(OC(F)F)c(F)c4)C3)cn2)on1 [Example 53, ammonium 5-[5-({cis-3-[4-(difluoromethoxy)-3,5-di-fluorophenyl]cyclobutyl}oxy)pyrazin-2-yl]isoxazol-3-olate]	14
Cc1ccc([C@H]2C[C@@H](Oc3cnc(-c4cc(O)no4)cn3)C2)cc1F [Example 57, 5-(5-{[cis-3-(3-fluoro-4-methylphenyl)cyclobutyl]oxy}pyrazin-2-yl)isoxazol-3-ol]	23
Cc1nc(C(F)(F)F)c(CO[C@H]2C[C@@H](Oc3ccc(-c4cc(O)no4)cn3)C2)s1 [Example 75, 5-(3-hydroxyisoxazol-5-yl)-2-[(cis-3-{[2-methyl-4-(trifluoromethyl)-1,3-thiazol-5-yl]methoxy}cyclobutyl)oxy] pyridinium trifluoroacetate]	149
Oc1cc(-c2ccc(O[C@H]3C[C@@H](OCc4cccc(C(F)(F)F)c4)C3)nc2)on1 [Example 74, 5-(3-hydroxyisoxazol-5-yl)-2-[(cis-3-{[3-(trifluoromethyl)benzyl]oxy}cyclobutyl)oxy]pyridinium trifluoroacetate]	11
CCOc1cc([C@]2(F)C[C@@H](Oc3ccc(-c4cc(O)no4)cn3)C2)ccn1 [Example 86, sodium 5-(6-{[cis-3-(2-ethoxypyridin-4-yl)-3-fluoro-cyclobutyl]oxy}pyridin-3-yl)isoxazol-3-olate]	26
CC(OC1CC(Oc2ccc(-c3cc(O)no3)cn2)C1)c1ccccc1 (mixture of isomers) [Example 78, 5-(6-{[3-(1-phenylethoxy)cyclobuty]oxy}pyridin-3-yl)isoxazol-3-ol (mixture of isomers)]	305
Oc1cc(-c2cnc(O[C@H]3C[C@@H](c4cc(F)cc(OC(F)(F)F)c4)C3)cn2)on1 [Example 3, ammonium 5-[5-({cis-3-[3-fluoro-5-(trifluoromethoxy)-phenyl]cyclobutyl}oxy)pyrazin-2-1]isoxazol-3-olate]	102

Next, values leading:

EC50 [nM]	Compound
647	Oc1cc(-c2cnc(O[C@H]3C[C@@H](c4ccc(F)cc4)C3)nc2)on1 [Example 112, 5-(2-{[cis-3-(4-fluorophenyl)cyclobutyl]oxy}pyrimidin-5-yl)isoxazol-3-ol]
538	CC(C)Oc1cc([C@]2(F)C[C@H](Oc3cnc(-c4cc(O)no4)cn3)C2)ccn1 [Example 101, sodium 5-[5-({trans-3-fluoro-3-[2-(propan-2-yloxy)pyridin-4-yl]cyclobutyl}oxy)pyrazin-2-yl]isoxazol-3-olate]
47	Oc1cc(-c2cnc(O[C@H]3C[C@@H](Oc4ccc(C(F)(F)F)cc4)C3)cn2)on1 [Example 67, ammonium 5-[5-({cis-3-[4-(trifluoromethyl)phenoxy]cyclobutyl}oxy)pyrazin-2-yl]isoxazol-3-olate]
36	Cc1ccc([C@H]2C[C@@H](Oc3cnc(-c4cc(O)no4)cn3)C2)c(F)c1 [Example 46, 5-(5-{[cis-3-(2-fluoro-4-methylphenyl)cyclobutyl]oxy}pyrazin-2-yl)isoxazol-3-ol]
24	Oc1cc(-c2cnc(O[C@H]3C[C@@H](c4ccc(F)c(C(F)F)c4)C3)cn2)on1 [Example 45, 5-[5-({cis-3-[3-(difluoromethyl)-4-fluorophenyl]cyclobutyl}oxy)pyrazin-2-yl]isoxazol-3-ol]
17	Oc1cc(-c2cnc(O[C@H]3C[C@@H](c4ccc(Cl)cc4)C3)cn2)on1 [Example 38, sodium 5-(5-{[cis-3-(4-chlorophenyl)cyclobutyl]oxy}pyrazin-2-yl)isoxazol-3-olate]
16	Oc1cc(-c2cnc(O[C@H]3C[C@@H](c4ccc5c(c4)OC(F)(F)O5)C3)cn2)on1 [Example 40, 5-(5-{[cis-3-(2,2-difluoro-1,3-benzodioxol-5-yl)cyclobutyl]oxy}pyrazin-2-yl)isoxazol-3-ol]
13	Oc1cc(-c2cnc(OC3CC(OCc4cc(C(F)(F)F)ccc4F)C3)cn2)on1 (mixture of isomers) [Example 79, 5-{5-[(cis-3-{[2-fluoro-5-(trifluoromethyl)benzyl]oxy}cyclobutyl)oxy]pyrazin-2-yl}isoxazol-3-ol (mixture of isomers predominantly cis)]
11	Oc1cc(-c2cnc(O[C@H]3C[C@@H](c4ccc(Cl)cc4)C3)nc2)on1 [Example 109, 5-(2-{[cis-3-(4-chlorophenyl)cyclobutyl]oxy}pyrimidin-5-yl)isoxazol-3-ol]

Molecular target: T2, rat GPR120 (Rattus norvegicus, UniProt Q2AC31)
T2 construct: expressed in transfected cells; host or cells: HEK293
T2 sequence (Q2AC31 1-361): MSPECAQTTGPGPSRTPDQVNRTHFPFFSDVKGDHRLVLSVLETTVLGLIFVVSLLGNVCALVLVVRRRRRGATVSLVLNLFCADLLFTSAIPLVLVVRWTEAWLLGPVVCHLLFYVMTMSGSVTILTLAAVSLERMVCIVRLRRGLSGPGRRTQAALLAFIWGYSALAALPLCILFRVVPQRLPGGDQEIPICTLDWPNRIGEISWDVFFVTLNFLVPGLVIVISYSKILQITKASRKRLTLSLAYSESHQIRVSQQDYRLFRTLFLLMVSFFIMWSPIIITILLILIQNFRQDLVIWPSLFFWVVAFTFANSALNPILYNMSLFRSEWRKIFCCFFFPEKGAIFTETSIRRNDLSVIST
Test: Rat GPR120 IP1 assay (inositol phosphate turnover)
Type: cell-based
Details: IP1 accumulation in HEK293 cells stably expressing rat GPR120
From the text: The binding of small molecule agonists to the G-protein-coupled receptor GPR120 activates phospholipase C, and leads to the generation of inositol 1,4,5-trisphosphate (InsP3 or IP3). IP3 is subsequently de-phosphorylated to IP1, which accumulates in cells and is stable in the presence of lithium chloride.
In the present method, agonist-induced activation of the human and rat GPR120 receptor was monitored by measuring the accumulation of IP1 in CHO-K1 cells that were stably expressing the short form of human GPR120 (Accession #NM_001195755) or HEK293 cells stably expressing rat GPR120 (Accession #NM_001047088). Following agonist addition, GPR120 activation and subsequent accumulation of IP1 was measured using a homogeneous Time Resolved Fluorescence-based ELISA commercially available from CisBio (IP-one ELISA Kit). The IP-One ELISA was a competitive immunoassay which uses IP1 labeled with […] and a terbium cryptate-labeled anti-IP1 monoclonal antibody. […] The signal loss was then back calculated to IP1 concentration using an IP1 standard curve. Determination of IP1 concentration was a direct measure of GPR120 activation and was used to determine compound potency (EC50).
Human GPR120 stable cell-lines were generated in CHO cells. The expression plasmids were transfected using lipofectamine (Life Technologies) following manufacturer's instructions. Stable cell-lines were generated following drug selection and single cell cloning. Rat GPR120 stable cell-lines were generated in HEK cells using the Jump-In™ cell engineering platform (Life Technologies) following manufacturer's instructions. Stable cell-lines were generated following drug selection and single cell cloning.
The assay was performed in 384-well format. CHO cells stably expressing human GPR120 were plated at 20,000 cells per well in growth medium (DMEM/F12, 10% fetal calf serum). HEK293 cells stably expressing rat GPR120 were plated at […] per well in growth medium (DMEM, 10% fetal calf serum). Cell plates were then incubated 16 hours at 37 degrees in a 5% CO2 incubator. Measurement of Inositol Phosphate Turnover (IP1) was performed using the CisBio IP-One kit (Part number 62IPAPEB). After the 16 hour incubation, the growth media was removed by centrifugation using the BlueWasher (AusWasher GUI Ver. v1.0.1.8) Protocol #21-“Light Dry” and 10 μl of stimulation buffer (prepared as described in the kit) was added to each well. In a separate plate, compounds were diluted in DMSO (200-fold over the final concentration in the assay well) and 50 nl was acoustically transferred to the appropriate well in the assay cell plate. The plates were then incubated for 60 minutes at 37 degrees in a 5% CO2 incubator. 10 μl of detection buffer (also prepared as described in the IP-One kit) was added to each well and the plates were incubated at room temperature for 60 minutes in the dark. The plates were then read in a Perkin ElmerEnVision or equivalent reader able to measure FRET. Fluorescent ratio of emission at 665 and 620 nm was then converted to the IP1 concentration by back calculating from an IP1 standard curve prepared at the time of the assay. The data was normalized to % activity using a reference compound, and the EC50 values were determined using a standard 4-parameter fit.

EC50 [nM]	Compound
1.5	Oc1cc(-c2ccc(O[C@H]3C[C@H](c4ccc(F)cc4)C3)cc2)on1 [Example 12, 5-(4-{[trans-3-(4-fluorophenyl)cyclobutyl]oxy}phenyl)isoxazol-3-ol]
